# What was measured:
# [1] = Drug excretion in rhesus monkey urine; format: ADME, Macaca mulatta; conditions: read-out: Activity
# [2] = tested on: Human immunodeficiency virus 1; assay: Antiviral activity against HIV1 infected in fasted human assessed as decrease in log10 HIV RNA copies/ml at 800 mg, po […] followed by a single dose on day 8 measured on day 9 relative to pooled placebo control; format: functional
# [3] = Tmax in fasted human at 400 mg, po every 12 hrs measured on day 8; format: ADME, organism-based; conditions: in vivo
# [4] = Tmax in fasted human at 600 mg, po every 24 hrs measured on day 8; format: ADME, organism-based; conditions: in vivo
# Homo sapiens [5] = assay: Reduction in uric acid level in healthy human serum at 1000 mg, po administered every day; format: ADME, organism-based; conditions: in vivo
# Homo sapiens [6] = assay: Reduction in uric acid level in healthy human serum at 800 mg, po administered every day; format: ADME, organism-based; conditions: in vivo
# [7] = tested on: Human immunodeficiency virus 1; assay: Antiviral activity against HIV1 infected in human assessed as change in CD4 expressing T-cell count from baseline at 800 mg, po administered every day as four enteric-coated tablets followed by a single dose on day 8 measured on day 9 relative to pooled placebo control; format: functional
# Homo sapiens [8] = assay: Reduction in uric acid level in healthy human serum at 600 mg, po administered every day; format: functional
# [9] = Tmax in fasted human plasma at 50 to 300 mg; format: ADME, organism-based
# [10] = tested on: Human immunodeficiency virus 1; assay: Antiviral activity against HIV1 infected in fasted human assessed as decrease in plasma viral log10 RNA copies/ml at 600 mg, po […] followed by a single dose on day 8 measured on day 9 relative to pooled placebo control; format: functional
# [11] = tested on: Human immunodeficiency virus 1; assay: Antiviral activity against HIV1 infected in fasted human assessed as viral load decay rate as viral log10 RNA copies/ml/day at 400 mg, po BID for 7 days as four modified-release capsules followed by a single dose on day 8 measured on day 9; format: functional
# [12] = Cmax in fasted human at 1000 mg, po every 24 hrs measured on day 8; format: ADME, organism-based; design: dose 1000 mg, route oral; conditions: plasma
# [13] = tested on: Human immunodeficiency virus 1; assay: Antiviral activity against HIV1; format: functional, organism-based
# [14] = tested on: Human immunodeficiency virus 1; assay: Antiviral activity against HIV1 infected in fasted human assessed as decrease in plasma viral log10 RNA copies/ml at 1000 mg, po […] followed by a single dose on day 8 measured on day 9 relative to pooled placebo control; format: functional
# Homo sapiens [15] = species: Homo sapiens; assay: Toxicity in healthy human assessed as occurrence of adverse events; format: organism-based; conditions: in vivo
# [16] = Plasma protein binding in rat; format: ADME, cell-free; conditions: read-out: PPB
# [17] = tested on: Human immunodeficiency virus 1; assay: Antiviral activity against HIV1 infected in fasted human assessed as decrease in plasma viral log10 RNA copies/ml at 800 mg, po […] followed by a single dose on day 8 measured on day 9 relative to pooled placebo control; format: functional
# Homo sapiens [18] = assay: Reduction in uric acid level in healthy human serum at 400 mg, po BID; format: functional
# [19] = Cmax in fasted human plasma at 400 mg, po every 12 hrs measured on day 8; format: ADME, organism-based; design: dose 400 mg, route oral
# Homo sapiens [20] = species: Homo sapiens; assay: Cardiotoxicity in healthy human assessed as changes in electrocardiographic QTc interval; format: toxicity, organism-based; conditions: in vivo
# [21] = tested on: Human immunodeficiency virus 1; assay: Antiviral activity against HIV1 infected in fasted human assessed as as viral load decay rate as viral log10 RNA copies/ml/day at 1000 mg, po administered every day as five enteric-coated tablets followed by a single dose on day 8 measured on day 9; format: functional
# [22] = Renal clearance in human; format: ADME, organism-based, Kidney; conditions: in vivo, read-out: CL_renal
# [23] = AUC (0 to 12 hrs) in human plasma at 300 mg administered as multiple doses, BID; format: ADME, organism-based; design: time < 12 hr, dose 300 mg
# [24] = tested on: Human immunodeficiency virus 1; assay: Antiviral activity against HIV1 infected in human assessed as change in CD8 expressing T-cell count from baseline at 800 mg, po administered every day as four enteric-coated tablets followed by a single dose on day 8 measured on day 9 relative to pooled placebo control; format: functional
# [25] = Renal clearance in rhesus monkey; format: ADME, organism-based, Macaca mulatta, Kidney; conditions: in vivo, read-out: CL_renal
# [26] = Tmax in fasted human at 800 mg, po every 24 hrs measured on day 8; format: ADME, organism-based; conditions: in vivo
# [27] = tested on: Human immunodeficiency virus 1; assay: Antiviral activity against HIV1 infected in human assessed as change in CD8 expressing T-cell count from baseline at 600 mg, po BID for 7 days as four modified-release capsules followed by a single dose on day 8 measured on day 9 relative to pooled placebo control; format: functional
# [28] = Drug excretion in dog urine; format: ADME, Canis lupus familiaris; conditions: read-out: Activity
# [29] = tested on: Human immunodeficiency virus 1; assay: Antiviral activity against HIV1 infected in human assessed as change in CD8 expressing T-cell count from baseline at 400 mg, po BID for 7 days as four modified-release capsules followed by a single dose on day 8 measured on day 9 relative to pooled placebo control; format: functional
# [30] = tested on: Human immunodeficiency virus 1; assay: Antiviral activity against HIV1 infected in fasted human assessed as viral load decay rate as viral log10 RNA copies/ml/day at 600 mg, po BID for 7 days as four modified-release capsules followed by a single dose on day 8 measured per day for 9 days; format: functional
# [31] = AUC (24 hrs) in fasted human at 1000 mg, po every 24 hrs measured on day 8; format: ADME, organism-based; design: dose 1000 mg, time < 24 hr, route oral; conditions: plasma
# [32] = Cmax in human plasma at 300 mg administered as multiple doses, BID; format: ADME, organism-based; design: dose 300 mg
smiles,measurement,setting,value
O=C(CSc1nnc(Br)n1-c1ccc(C2CC2)c2ccccc12)Nc1ccc(C(=O)O)cc1Cl,dose excreted,[1],< 0.06%
same,Activity,[2],-1.619 mL⁻¹
same,Tmax,[3],1.5 h
same,Tmax,[4],2 h
same,Activity,Homo sapiens [5],88 µmol/L
same,Activity,Homo sapiens [6],58 µmol/L
same,Activity,[7],100.74 /mm3
same,Activity,Homo sapiens [8],81 µmol/L
same,Tmax,[9],1.25 h
same,Activity,[10],-1.5241 mL⁻¹
same,Activity,[11],-0.25 mL⁻¹
same,Cmax,[12],3700 ng/mL
same,EC50,[13],1.7 ng/mL
same,Activity,[14],-1.8189 mL⁻¹
same,Activity,Homo sapiens [15],Non-toxic
same,fraction unbound,[16],< 0.01
same,Activity,[17],-1.7426 mL⁻¹
same,Activity,Homo sapiens [18],88 µmol/L
same,Cmax,[19],2990 ng/mL
same,Activity,Homo sapiens [20],Non-toxic
same,Activity,[21],-0.22 mL⁻¹
same,CL renal,[22],≤ 1 mL/min
same,AUC at 12 h,[23],3160 ng·h/mL
same,Activity,[24],79.41 /mm3
same,CL renal,[25],≤ 1 mL/min
same,Tmax,[26],3 h
same,Activity,[27],64.54 /mm3
same,dose excreted,[28],< 0.06%
same,Activity,[29],-39.17 /mm3
same,Activity,[30],-0.18 mL⁻¹
same,AUC at 24 h,[31],17400 ng·h/mL
same,Cmax,[32],667 ng/mL

# Reference: ChEMBL document CHEMBL1629701, “Phase 2a randomized controlled trial of short-term activity, safety, and pharmacokinetics of a novel nonnucleoside reverse transcriptase inhibitor, RDEA806, in HIV-1-positive, antiretroviral-naive subjects” (Antimicrob Agents Chemother, 2010)
